According to patent US20230278972A1, “SUBSTITUTED HALOALKYL SULFONANILIDE HERBICIDES” (FMC Corporation, priority 2020, published 2023):

Experiments:
Format in all cases: in vivo
[1] = test system: ragweed (common ragweed, Ambrosia artemisiifolia); assay: Test A preemergence, ragweed; details: Preemergence; for Plant response rating, Ragweed: visual injury, 0 to 100 scale (0 no effect, 100 complete control), approx. 10 days; for Ragweed plant response rating: visual injury on 0 to 100 scale (0 no effect, 100 complete control), approximately 10 days
Procedure, shortened: (§1)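 Postemergence ratings come from foliar sprays onto one- to two-leaf plants of 2 to 10 cm grown in loam/sand; preemergence ratings come from a directed spray onto the soil of newly seeded pots. Formulation was a surfactant-containing non-phytotoxic solvent blend.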

[2] = test system: blackgrass (Alopecurus myosuroides); assay: Test A postemergence, blackgrass; details: Postemergence, 0 to 100 scale (0 no effect, 100 complete control)
Procedure, shortened: as §1

[3] = test system: barnyardgrass (Echinochloa crus-galli); assay: Test A postemergence, barnyardgrass; details: Postemergence, 0 to 100 scale (0 no effect, 100 complete control)
Procedure, shortened: (§2)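 After sowing into a sand-amended loam, pots for the preemergence test were treated by spraying directly onto soil. In parallel, seedlings at the one- to two-leaf stage and 2 to 10 cm tall were treated postemergence with the identical surfactant-containing formulation.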

kochia (Bassia scoparia) [4] = assay: Test A postemergence, kochia; details: Postemergence
Procedure, shortened: as §1

kochia (Bassia scoparia) [5] = assay: Test A preemergence, kochia; details: Preemergence; for Plant response rating, Kochia: visual injury, 0 to 100 scale (0 no effect, 100 complete control), approx. 10 days; for Kochia plant response rating: visual injury on 0 to 100 scale (0 no effect, 100 complete control), approximately 10 days
Procedure, shortened: as §1

corn (Zea mays) = assay: Test A postemergence, corn; details: Postemergence
Procedure, shortened: as §1

[6] = test system: Ryegrass, Italian (Italian ryegrass, Lolium multiflorum); assay: Test A preemergence, Ryegrass, Italian; details: Preemergence; for Plant response rating, Ryegrass, Italian: visual injury, 0 to 100 scale (0 no effect, 100 complete control), approx. 10 days; for Ryegrass, Italian plant response rating: visual injury on 0 to 100 scale (0 no effect, 100 complete control), approximately 10 days
Procedure, shortened: as §1

[7] = test system: galium (catchweed bedstraw, Galium aparine); assay: Test A postemergence, galium; details: Postemergence
Procedure, shortened: as §2

[8] = test system: wheat (Triticum aestivum); assay: Test A postemergence, wheat; details: Postemergence
Procedure, shortened: as §2

[9] = test system: Foxtail, Giant (giant foxtail, Setaria faberi); assay: Test A postemergence, Foxtail, Giant; details: Postemergence
Procedure, shortened: as §1

[10] = test system: pigweed (Amaranthus retroflexus); assay: Test A postemergence, pigweed; details: Postemergence
Procedure, shortened: as §1

[11] = test system: Foxtail, Giant (giant foxtail, Setaria faberi); assay: Test A preemergence, Foxtail, Giant; details: Preemergence; for Plant response rating, Foxtail, Giant: visual injury, 0 to 100 scale (0 no effect, 100 complete control), approx. 10 days; for Foxtail, Giant plant response rating: visual injury on 0 to 100 scale (0 no effect, 100 complete control), approximately 10 days
Procedure, shortened: as §1

[12] = test system: barnyardgrass (Echinochloa crus-galli); assay: Test A preemergence, barnyardgrass; details: Preemergence; for Plant response rating, Barnyardgrass: visual injury, 0 to 100 scale (0 no effect, 100 complete control), approx. 10 days; for Barnyardgrass plant response rating: visual injury on 0 to 100 scale (0 no effect, 100 complete control), approximately 10 days
Procedure, shortened: as §1

[13] = test system: ragweed (common ragweed, Ambrosia artemisiifolia); assay: Test A postemergence, ragweed; details: Postemergence
Procedure, shortened: as §1

[14] = test system: Ryegrass, Italian (Italian ryegrass, Lolium multiflorum); assay: Test A postemergence, Ryegrass, Italian; details: Postemergence
Procedure, shortened: as §1

[15] = test system: pigweed (Amaranthus retroflexus); assay: Test A preemergence, pigweed; details: for Plant response rating, Pigweed: visual injury, 0 to 100 scale (0 no effect, 100 complete control), approx. 10 days; for Pigweed plant response rating: visual injury on 0 to 100 scale (0 no effect, 100 complete control), approximately 10 days
Procedure, shortened: as §2

[16] = 500 g ai/ha, visual injury approx. 10 days
[17] = 125 g ai/ha, 0 to 100 scale (0 no effect, 100 complete control)
[18] = 500 g ai/ha, visual injury approx. 10 days, 0 to 100 scale (0 no effect, 100 complete control)
[19] = 31 g ai/ha, visual injury on 0 to 100 scale (0 no effect, 100 complete control), approx. 10 days
[20] = 125 g ai/ha, visual injury approx. 10 days
[21] = 31 g ai/ha, 0 to 100 scale (0 no effect, 100 complete control)
[22] = 125 g ai/ha, visual injury approx. 10 days, 0 to 100 scale (0 no effect, 100 complete control)

Cc1cc(C)c(N(S(=O)(=O)C(F)(F)F)S(=O)(=O)C(F)(F)F)cc1C(=O)N1CCCOCC1 [Compound 276]
Plant response rating, Ragweed ([1]; 125 g ai/ha): 40
Ragweed plant response rating ([1]; 500 g ai/ha): 70
Plant response rating, Blackgrass ([2]; 125 g ai/ha): 0
Plant response rating, Blackgrass [2, 16]: 0
Plant response rating, Barnyardgrass ([3]; 125 g ai/ha): 60
Plant response rating, Barnyardgrass [3, 16]: 90
Plant response rating, Kochia (kochia (Bassia scoparia) [4]; [17]): 20
Plant response rating, Kochia (kochia (Bassia scoparia) [4]; [18]): 60
Plant response rating, Kochia (kochia (Bassia scoparia) [5]; 125 g ai/ha): 0
Kochia plant response rating (kochia (Bassia scoparia) [5]; 500 g ai/ha): 0
Plant response rating, Corn (corn (Zea mays); [17]): 0
Plant response rating, Corn (corn (Zea mays); [18]): 20
Plant response rating, Ryegrass, Italian ([6]; 125 g ai/ha): 30
Ryegrass, Italian plant response rating ([6]; 500 g ai/ha): 80
Plant response rating, Galium [7, 17]: 80
Plant response rating, Galium [7, 18]: 90
Plant response rating, Wheat [8, 17]: 0
Plant response rating, Wheat [8, 18]: 20
Plant response rating, Foxtail, Giant [9, 17]: 10
Plant response rating, Foxtail, Giant [9, 18]: 90
Plant response rating, Pigweed [10, 17]: 60
Plant response rating, Pigweed [10, 18]: 80
Plant response rating, Foxtail, Giant ([11]; 125 g ai/ha): 100
Foxtail, Giant plant response rating ([11]; 500 g ai/ha): 100
Plant response rating, Barnyardgrass ([12]; 125 g ai/ha): 70
Barnyardgrass plant response rating ([12]; 500 g ai/ha): 100
Plant response rating, Ragweed [13, 17]: 50
Plant response rating, Ragweed [13, 18]: 80
Plant response rating, Ryegrass, Italian [14, 17]: 0
Plant response rating, Ryegrass, Italian [14, 18]: 10
Plant response rating, Pigweed ([15]; 125 g ai/ha): 80
Pigweed plant response rating ([15]; 500 g ai/ha): 100

CCC(C)C(=O)OCN(c1cc(C2=NOC3(CCCC3)C2)c(C)cc1C)S(=O)(=O)C(F)(F)F (stereo not drawn) [Compound 151]
Plant response rating, Ragweed ([1]; 31 g ai/ha): 0
Ragweed plant response rating ([1]; 125 g ai/ha): 30
Plant response rating, Blackgrass ([2]; 31 g ai/ha): 0
Plant response rating, Blackgrass ([2]; 125 g ai/ha): 0
Plant response rating, Barnyardgrass ([3]; 31 g ai/ha): 0
Plant response rating, Barnyardgrass ([3]; 125 g ai/ha): 30
Plant response rating, Kochia (kochia (Bassia scoparia) [4]; [19]): 10
Plant response rating, Kochia (kochia (Bassia scoparia) [4]; [17]): 10
Plant response rating, Kochia (kochia (Bassia scoparia) [5]; 31 g ai/ha): 0
Kochia plant response rating (kochia (Bassia scoparia) [5]; 125 g ai/ha): 0
Plant response rating, Corn (corn (Zea mays); [19]): 0
Plant response rating, Corn (corn (Zea mays); [17]): 10
Plant response rating, Ryegrass, Italian ([6]; 31 g ai/ha): 30
Ryegrass, Italian plant response rating ([6]; 125 g ai/ha): 90
Plant response rating, Galium [7, 19]: 60
Plant response rating, Galium [7, 17]: 70
Plant response rating, Wheat [8, 19]: 0
Plant response rating, Wheat [8, 17]: 50
Plant response rating, Foxtail, Giant [9, 19]: 0
Plant response rating, Foxtail, Giant [9, 17]: 30
Plant response rating, Pigweed [10, 19]: 30
Plant response rating, Pigweed [10, 17]: 30
Plant response rating, Foxtail, Giant ([11]; 31 g ai/ha): 60
Foxtail, Giant plant response rating ([11]; 125 g ai/ha): 100
Plant response rating, Barnyardgrass ([12]; 31 g ai/ha): 0
Barnyardgrass plant response rating ([12]; 125 g ai/ha): 90
Plant response rating, Ragweed [13, 19]: 0
Plant response rating, Ragweed [13, 17]: 40
Plant response rating, Ryegrass, Italian [14, 19]: 0
Plant response rating, Ryegrass, Italian [14, 17]: 0
Plant response rating, Pigweed ([15]; 31 g ai/ha): 50
Pigweed plant response rating ([15]; 125 g ai/ha): 90

Cc1cc(Cl)c(NS(=O)(=O)C(F)(F)F)cc1C(=O)N1CCOC(C)C1 (stereo not drawn) [Compound 1]
Plant response rating, Ragweed ([1]; 31 g ai/ha): 30
Ragweed plant response rating ([1]; 125 g ai/ha): 50
Plant response rating, Blackgrass ([2]; 31 g ai/ha): 0
Plant response rating, Blackgrass [2, 20]: 50
Plant response rating, Barnyardgrass ([3]; 31 g ai/ha): 70
Plant response rating, Barnyardgrass [3, 20]: 90
Plant response rating, Kochia (kochia (Bassia scoparia) [4]; [21]): 20
Plant response rating, Kochia (kochia (Bassia scoparia) [4]; [22]): 60
Plant response rating, Kochia (kochia (Bassia scoparia) [5]; 31 g ai/ha): 40
Kochia plant response rating (kochia (Bassia scoparia) [5]; 125 g ai/ha): 70
Plant response rating, Corn (corn (Zea mays); [21]): 20
Plant response rating, Corn (corn (Zea mays); [22]): 30
Plant response rating, Ryegrass, Italian ([6]; 31 g ai/ha): 40
Ryegrass, Italian plant response rating ([6]; 125 g ai/ha): 90
Plant response rating, Galium [7, 21]: 90
Plant response rating, Galium [7, 22]: 100
Plant response rating, Wheat [8, 21]: 30
Plant response rating, Wheat [8, 22]: 50
Plant response rating, Foxtail, Giant [9, 21]: 20
Plant response rating, Foxtail, Giant [9, 22]: 70
Plant response rating, Pigweed [10, 21]: 50
Plant response rating, Pigweed [10, 22]: 80
Plant response rating, Foxtail, Giant ([11]; 31 g ai/ha): 20
Foxtail, Giant plant response rating ([11]; 125 g ai/ha): 90
Plant response rating, Barnyardgrass ([12]; 31 g ai/ha): 0
Barnyardgrass plant response rating ([12]; 125 g ai/ha): 80
Plant response rating, Ragweed [13, 21]: 80
Plant response rating, Ragweed [13, 22]: 90
Plant response rating, Ryegrass, Italian [14, 21]: 0
Plant response rating, Ryegrass, Italian [14, 22]: 40
Plant response rating, Pigweed ([15]; 31 g ai/ha): 70
Pigweed plant response rating ([15]; 125 g ai/ha): 100
